Tests used:
[1] = test system: recombinant HIV-1 viruses (NL4-3, RF, LAI) in MT-2 cells; assay: MT-2 cell susceptibility assay of recombinant viruses; format: cell-based; conditions: all three viral strains, I50L or I50L/A71V introduced by site-directed mutagenesis
Procedure: Cells and Viruses. MT-2 cells, HIV-1 RF, HIV1-LAI, and the HIV-1 NL4-3 proviral clones were obtained through the AIDS Research and Reference Reagent Program, National Institutes of Health. MT-2 cells were cultured in RPMI 1640 medium supplemented with 10% fetal bovine serum, 2 mM L-glutamine, and 10 mM Hepes buffer. HIV-1 viruses were generated by transient transfection of the proviral DNA into Human Embryonic Kidney 293 cells using Lipofectamine reagents (Gibco BRL). The viruses were harvested 72 hr post-transfection, amplified in MT-2 cells, and titered in the same cells using a virus yield assay.
Recombinant HIV-1 Variants and Chimeric NL4-3 Proviral Clones. HIV-1 strains with defined substitutions in the protease gene were generated by QuikChange® site-directed mutagenesis as recommended by the manufacturer (Stratagene). Recombinant NL4-3 and LAI proviral clones containing the wild-type and mutant protease genes from RF and clinical isolates were constructed by replacing the SseI/ApaI fragment of pNL4-3 with the appropriate SseI/ApaI protease fragments.
Recombinant viruses (generated separately from those made for PhenoSense assays) were tested in an MT-2 cell susceptibility assay at Bristol Myers Squibb. MT-2 cells were infected with recombinant viruses at a multiplicity of infection (MOI) of 0.005 50% tissue culture infective doses (TCID50)/cell followed by incubation in the presence or absence of serially diluted protease inhibitors for 4 to 7 days. Virus yields were quantified using a RT assay as previously described. The results from at least four independent experiments were used to calculate the EC50.

[2] = test system: clinical isolates containing an I50V; assay: PhenoSense phenotypic susceptibility of clinical isolates containing I50V; format: cell-based, HIV-1
Excerpt: (§1) Drug Susceptibility Assays. Clinical isolates were subjected to phenotypic (PhenoSense™) and genotypic (GeneSeq™) analysis by Virologic, Inc. as described elsewhere.
Because an I50V substitution is a signature mutation sometimes associated with APV resistance, the cross-resistance relationship between ATV and APV was further examined.

[3] = test system: clinical isolates containing a D30N substitution; assay: PhenoSense phenotypic susceptibility of clinical isolates containing D30N; format: cell-based, HIV-1; conditions: 75 D30N containing isolates, FIG. 3
Procedure: as §1
Comparative Studies of I50L and D30N Containing Viruses. […] Comparative studies were performed on the 18 phenotyped viruses containing an I50L and 75 clinical isolates containing a D30N substitution without evidence of cross-resistance (FC≧2.5) to other PIs.

[4] = test system: clinical isolates containing an I50L substitution (and their baseline isolates); assay: PhenoSense phenotypic susceptibility of clinical isolates from ATV-treated patients who developed I50L; format: cell-based, HIV-1; conditions: for Subceptibility, Fold Change in EC50 relative to reference strain: Subject 169, Week 114; for median increase in susceptibility from baseline: on emergence of I50L, n=4 to 15; for percentage of I50L isolates with susceptibility (FC) 0.4-fold or lower: relative to the reference strain
Excerpt: Study Population. Viral samples (baseline and on-treatment, where available) were obtained from patients who experienced virologic failure while enrolled in studies AI424-007/041 [12] (ATV+d4T and ddI), AI424-008/044 [13, 14] (ATV+d4T and 3TC) and AI424-034 [9] (ATV or EFV in combination with ZDV and 3TC). […] In general, virologic failure specimens were selected for further resistance evaluation only if they contained >1,000 copies/mL HIV-1 RNA and there was no indication that the specimen came from a patient at a time of transient non-adherence to study drug(s). […] For non-responders, samples from week 16 (or 24) were tested. Drug adherence was determined from pill counts of returned study medications at each scheduled visit.
as §1

[5] = test system: clinical isolates from patients on NFV regimens; conditions: isolates containing D30N as the only primary PI mutation; cited from earlier work
[6] = test system: HIV-1 variants containing I50V; conditions: in vitro; cited from earlier work

CC(C)CN(C[C@@H](O)[C@H](Cc1ccccc1)NC(=O)O[C@H]1CCOC1)S(=O)(=O)c1ccc(N)cc1 [APV, amprenavir]
change in susceptibility [1]: enhanced susceptibility | Susceptibility, Fold Change in EC50 relative to reference strain ([2]; Isolate with I50V 1): 3.5 Fold Change | Susceptibility, Fold Change in EC50 relative to reference strain ([2]; Isolate with I50V 2): 4.2 Fold Change | Susceptibility, Fold Change in EC50 relative to reference strain ([2]; Isolate with I50V 3): 8.0 Fold Change | Susceptibility, Fold Change in EC50 relative to reference strain ([2]; Isolate with I50V 4): 9.4 Fold Change | Susceptibility, Fold Change in EC50 relative to reference strain ([2]; Isolate with I50V 5): 11 Fold Change | Susceptibility, Fold Change in EC50 relative to reference strain ([2]; Isolate with I50V 6): 11 Fold Change | Susceptibility, Fold Change in EC50 relative to reference strain ([2]; Isolate with I50V 7): 12 Fold Change | Susceptibility, Fold Change in EC50 relative to reference strain ([2]; Isolate with I50V 8): 14 Fold Change | median FC [3]: 0.6 | cross-resistance ([4]; I50L containing clinical isolates): none of the I50L containing clinical isolates showed evidence of APV resistance | Susceptibility, Fold Change in EC50 relative to reference strain ([4]; Isolate with I50L 1): 0.3 Fold Change | Susceptibility, Fold Change in EC50 relative to reference strain ([4]; Isolate with I50L 2): 0.6 Fold Change | Susceptibility, Fold Change in EC50 relative to reference strain ([4]; Isolate with I50L 3): 0.5 Fold Change | Susceptibility, Fold Change in EC50 relative to reference strain ([4]; Isolate with I50L 4): 0.4 Fold Change | Susceptibility, Fold Change in EC50 relative to reference strain ([4]; Isolate with I50L 5): 0.6 Fold Change | Susceptibility, Fold Change in EC50 relative to reference strain ([4]; Isolate with I50L 6): 0.4 Fold Change | Susceptibility, Fold Change in EC50 relative to reference strain ([4]; Isolate with I50L 7): 0.6 Fold Change | Susceptibility, Fold Change in EC50 relative to reference strain ([4]; Isolate with I50L 8): 0.8 Fold Change | Susceptibility, Fold Change in EC50 relative to reference strain ([4]; Isolate with I50L 9): 0.6 Fold Change | Susceptibility, Fold Change in EC50 relative to reference strain ([4]; Isolate with I50L 10): 0.3 Fold Change | Susceptibility, Fold Change in EC50 relative to reference strain ([4]; Isolate with I50L 11): 0.4 Fold Change | Susceptibility, Fold Change in EC50 relative to reference strain ([4]; Isolate with I50L 12): 0.7 Fold Change | Susceptibility, Fold Change in EC50 relative to reference strain ([4]; Isolate with I50L 13): 0.7 Fold Change | Susceptibility, Fold Change in EC50 relative to reference strain ([4]; Isolate with I50L 14): 0.8 Fold Change | Susceptibility, Fold Change in EC50 relative to reference strain ([4]; Isolate with I50L 15): 0.9 Fold Change | Susceptibility, Fold Change in EC50 relative to reference strain ([4]; Isolate with I50L 16): 0.4 Fold Change | Susceptibility, Fold Change in EC50 relative to reference strain ([4]; Subject 076, Week 80): 0.6 Fold Change | Susceptibility, Fold Change in EC50 relative to reference strain ([4]; Subject 076, Week 92): 0.9 Fold Change | Susceptibility, Fold Change in EC50 relative to reference strain ([4]; Subject 100, Week 1.7): 1.5 Fold Change | Susceptibility, Fold Change in EC50 relative to reference strain ([4]; Subject 169, Week 0.1): 0.6 Fold Change | Susceptibility, Fold Change in EC50 relative to reference strain ([4]; Subject 169, Week 90): 0.7 Fold Change | Susceptibility, Fold Change in EC50 relative to reference strain ([4]; Subject 169, Week 102): 0.6 Fold Change | Subceptibility, Fold Change in EC50 relative to reference strain [4]: 1.2 Fold Change | Susceptibility, Fold Change in EC50 relative to reference strain ([4]; Subject 362, Week 0.1): 1.0 Fold Change | Susceptibility, Fold Change in EC50 relative to reference strain ([4]; Subject 362, Week 108): 1.1 Fold Change | percentage of baseline isolates exhibiting a FC≦0.4 [4]: 21% | median increase in susceptibility from baseline [4]: 1.5 fold | percentage of I50L isolates with susceptibility (FC) 0.4-fold or lower [4]: 39% | susceptibility [5]: remained susceptible

Cc1cccc(C)c1OCC(=O)N[C@@H](Cc1ccccc1)[C@@H](O)C[C@H](Cc1ccccc1)NC(=O)[C@H](C(C)C)N1CCCNC1=O [LPV, lopinavir]
change in susceptibility [1]: enhanced susceptibility | effect of I50V on susceptibility [6]: reduced susceptibility | Susceptibility, Fold Change in EC50 relative to reference strain ([4]; Subject 076, Week 80): 0.6 Fold Change | Susceptibility, Fold Change in EC50 relative to reference strain ([4]; Subject 076, Week 92): 0.5 Fold Change | percentage of baseline isolates exhibiting a FC≦0.4 [4]: 0% | median increase in susceptibility from baseline [4]: 3.2 fold | percentage of I50L isolates with susceptibility (FC) 0.4-fold or lower [4]: 100% | median FC [4]: ≤ 0.4

CC(C)c1nc(CN(C)C(=O)N[C@H](C(=O)N[C@@H](Cc2ccccc2)C[C@H](O)[C@H](Cc2ccccc2)NC(=O)OCc2cncs2)C(C)C)cs1 [RTV, ritonavir]
change in susceptibility [1]: enhanced susceptibility | effect of I50V on susceptibility [6]: reduced susceptibility | Susceptibility, Fold Change in EC50 relative to reference strain ([4]; Subject 076, Week 80): 0.3 Fold Change | Susceptibility, Fold Change in EC50 relative to reference strain ([4]; Subject 076, Week 92): 0.3 Fold Change | Susceptibility, Fold Change in EC50 relative to reference strain ([4]; Subject 100, Week 1.7): 2.2 Fold Change | Susceptibility, Fold Change in EC50 relative to reference strain ([4]; Subject 169, Week 0.1): 1.5 Fold Change | Susceptibility, Fold Change in EC50 relative to reference strain ([4]; Subject 169, Week 90): 0.3 Fold Change | Susceptibility, Fold Change in EC50 relative to reference strain ([4]; Subject 169, Week 102): 0.3 Fold Change | Subceptibility, Fold Change in EC50 relative to reference strain [4]: 0.4 Fold Change | Susceptibility, Fold Change in EC50 relative to reference strain ([4]; Subject 362, Week 0.1): 1.1 Fold Change | Susceptibility, Fold Change in EC50 relative to reference strain ([4]; Subject 362, Week 108): 0.4 Fold Change | percentage of baseline isolates exhibiting a FC≦0.4 [4]: 10% | median increase in susceptibility from baseline [4]: 4.1 fold | percentage of I50L isolates with susceptibility (FC) 0.4-fold or lower [4]: 83% | median FC [4]: ≤ 0.4 | susceptibility [5]: remained susceptible

CC(C)(C)NC(=O)[C@@H]1C[C@@H]2CCCC[C@@H]2CN1C[C@@H](O)[C@H](Cc1ccccc1)NC(=O)[C@H](CC(N)=O)NC(=O)c1ccc2ccccc2n1 [SQV, saquinavir]
change in susceptibility [1]: enhanced susceptibility | effect of I50V on susceptibility [6]: increased susceptibility | Susceptibility, Fold Change in EC50 relative to reference strain ([4]; Subject 076, Week 80): 0.3 Fold Change | Susceptibility, Fold Change in EC50 relative to reference strain ([4]; Subject 076, Week 92): 0.5 Fold Change | Susceptibility, Fold Change in EC50 relative to reference strain ([4]; Subject 100, Week 1.7): 1.3 Fold Change | Susceptibility, Fold Change in EC50 relative to reference strain ([4]; Subject 169, Week 0.1): 0.8 Fold Change | Susceptibility, Fold Change in EC50 relative to reference strain ([4]; Subject 169, Week 90): 0.5 Fold Change | Susceptibility, Fold Change in EC50 relative to reference strain ([4]; Subject 169, Week 102): 0.4 Fold Change | Subceptibility, Fold Change in EC50 relative to reference strain [4]: 0.5 Fold Change | Susceptibility, Fold Change in EC50 relative to reference strain ([4]; Subject 362, Week 0.1): 1.0 Fold Change | Susceptibility, Fold Change in EC50 relative to reference strain ([4]; Subject 362, Week 108): 0.5 Fold Change | percentage of baseline isolates exhibiting a FC≦0.4 [4]: 10% | median increase in susceptibility from baseline [4]: 2.0 fold | percentage of I50L isolates with susceptibility (FC) 0.4-fold or lower [4]: 72% | median FC [4]: ≤ 0.4 | susceptibility [5]: remained susceptible
